According to patent US20150051202A1, “TRIAZOLOPYRAZINE DERIVATIVES” (Merck Patent GmbH, priority 2012, published 2015):

Columns and labels:
3 LL lung carcinoma = settings: mice; Rodriguez 2004; cited from earlier work
murine model of RA = settings: cited from earlier work
RA = RA Phase II studies in humans; cited from earlier work
GCN2 = GCN2 (Homo sapiens, UniProt Q9P2K8); experiment: GCN2 enzyme assay (TR-FRET Lanthascreen, GFP-eIF2alpha substrate); format: biochemical
Procedure, shortened: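 GCN2 (30 nM) incubated at room temperature with 10 μM ATP and 80 nM GFP-eIF2alpha in 50 mM Hepes pH 7.0, 10 mM MgCl2, 5 mM MnCl2, 2 mM DTT, 0.1% BSA, 1% DMSO. Reaction stopped with EDTA; phospho-eIF2alpha detected by antibody TR-FRET, excitation 340 nm.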

SYK = target: T1, SYK (Homo sapiens, UniProt P43405); experiment: SYK enzyme assay (Flash plate assay / Caliper mobility shift assay); format: biochemical; settings: for SYK (enzyme assay) % at 3 μM: 100% corresponds to zero effect, −50% corresponds to IC50
T1 construct: purchased BPS Bioscience, CA, USA
Procedure, shortened: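 Flashplate: 2.5 nM SYK, 400 nM biotinylated peptide and 10 μM ATP with 33P-ATP, pH 7.5, 1 h at 30 °C, EDTA stop, radioactivity read, background with 0.1 μM staurosporine. Caliper: 90 min at 25 °C in HEPES pH 7.5, 1 mM MgCl2, 1 mM DTT, mobility-shift percent conversion of fluorescent peptide. IC50 from dose-response in both.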

[1] = system: tumors over-expressing IDO; settings: several tumor models, monotherapy; cited from earlier work

Sequence of GCN2 (Q9P2K8 whole entry): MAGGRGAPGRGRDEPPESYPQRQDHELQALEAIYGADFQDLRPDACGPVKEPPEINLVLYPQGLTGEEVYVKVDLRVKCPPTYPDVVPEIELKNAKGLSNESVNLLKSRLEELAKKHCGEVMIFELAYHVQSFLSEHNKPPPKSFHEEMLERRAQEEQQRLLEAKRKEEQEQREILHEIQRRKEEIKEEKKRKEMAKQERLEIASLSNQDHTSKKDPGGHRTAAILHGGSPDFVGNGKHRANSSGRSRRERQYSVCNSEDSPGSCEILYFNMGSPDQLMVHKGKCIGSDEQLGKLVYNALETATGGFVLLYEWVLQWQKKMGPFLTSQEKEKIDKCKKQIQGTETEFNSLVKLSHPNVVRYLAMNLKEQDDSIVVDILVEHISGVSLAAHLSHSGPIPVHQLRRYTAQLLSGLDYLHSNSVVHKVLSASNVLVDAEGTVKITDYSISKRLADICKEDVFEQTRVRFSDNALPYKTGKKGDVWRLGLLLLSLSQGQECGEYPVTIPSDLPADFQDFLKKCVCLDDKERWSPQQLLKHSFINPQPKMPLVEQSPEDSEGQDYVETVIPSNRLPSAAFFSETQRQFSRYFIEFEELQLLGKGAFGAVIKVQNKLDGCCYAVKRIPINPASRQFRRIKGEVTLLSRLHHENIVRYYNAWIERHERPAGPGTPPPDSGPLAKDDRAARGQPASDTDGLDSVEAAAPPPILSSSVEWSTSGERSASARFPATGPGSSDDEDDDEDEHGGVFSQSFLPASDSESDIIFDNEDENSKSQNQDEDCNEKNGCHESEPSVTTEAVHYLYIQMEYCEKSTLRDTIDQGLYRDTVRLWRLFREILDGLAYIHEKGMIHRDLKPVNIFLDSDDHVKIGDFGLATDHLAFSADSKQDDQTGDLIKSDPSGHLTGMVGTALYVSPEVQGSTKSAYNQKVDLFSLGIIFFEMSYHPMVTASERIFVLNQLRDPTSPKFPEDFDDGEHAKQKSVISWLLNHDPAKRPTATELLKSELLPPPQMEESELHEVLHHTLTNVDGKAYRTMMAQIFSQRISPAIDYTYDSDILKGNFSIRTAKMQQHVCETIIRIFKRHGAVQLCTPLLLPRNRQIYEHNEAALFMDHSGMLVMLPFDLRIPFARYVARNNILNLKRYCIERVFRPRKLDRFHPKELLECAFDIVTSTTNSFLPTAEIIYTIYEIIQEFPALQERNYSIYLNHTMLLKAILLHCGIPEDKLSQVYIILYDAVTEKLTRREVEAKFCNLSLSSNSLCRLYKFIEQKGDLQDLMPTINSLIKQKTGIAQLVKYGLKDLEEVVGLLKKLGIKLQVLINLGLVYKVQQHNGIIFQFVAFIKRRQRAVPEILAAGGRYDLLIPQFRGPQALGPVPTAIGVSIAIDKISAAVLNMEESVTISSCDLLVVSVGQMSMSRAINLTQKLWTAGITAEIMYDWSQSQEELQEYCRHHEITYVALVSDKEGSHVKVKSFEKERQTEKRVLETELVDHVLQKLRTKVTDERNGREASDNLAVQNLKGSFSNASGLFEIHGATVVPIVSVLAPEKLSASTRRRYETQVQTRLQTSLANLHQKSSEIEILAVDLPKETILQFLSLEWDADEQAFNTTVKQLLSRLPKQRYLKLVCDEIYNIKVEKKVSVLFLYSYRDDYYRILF

| SMILES | IC50 (SYK) [nM] | IC50 (GCN2) [nM] | also measured |
| --- | --- | --- | --- |
| N=C(NO)NCC[C@H](N)C(=O)O [N-hydroxy-nor-L-Arg] | – | – | growth of s.c. 3 LL lung carcinoma (3 LL lung carcinoma): blocks growth |
| COc1cc(Nc2ncc(F)c(Nc3ccc4c(n3)NC(=O)C(C)(C)O4)n2)cc(OC)c1OC [Compound R406] | – | – | bone erosion (murine model of RA): significantly reduced; clinical scores (murine model of RA): significant improvement; serum cytokine concentrations (murine model of RA): significantly reduced; efficacy (ACR scores) (RA): efficacy (ACR scores improvement); tolerability (RA): good tolerability |
| Cn1cc(-c2ncc3nc(Nc4ccc(N5CCOCC5)cc4)nn3c2-c2cnn(C)c2)cn1 [Compound A46, [5,6-Bis-(1-methyl-1H-pyrazol-4-yl)-[1,2,4]triazolo[1,5-a]pyrazin-2-yl]-(4-morpholin-4-yl-phenyl)-amine] | 1000 to 5000 | – | GCN2 (enzyme assay) % at 10 μM (GCN2; at 10 μM, 100% corresponds to zero effect, −50% corresponds to IC50): −8@10% |
| Cn1cc(-c2cncc3nc(NC(=O)C4CCNCC4)nn23)cn1 [Compound A74, piperidine-4-carboxylic acid [5-(1-methyl-1H-pyrazol-4-yl)-[1,2,4]triazolo[1,5-a]pyrazin-2-yl]-amide] | – | 5000 to 10000 | SYK (enzyme assay) % at 3 μM (SYK): 4@3% |
| c1cncc(Nc2nc3cnc(-c4cccnc4)cn3n2)c1 [Compound A25, pyridin-3-yl-(6-pyridin-3-yl-[1,2,4]triazolo[1,5-a]pyrazin-2-yl]-amine] | – | 1000 to 5000 | SYK (enzyme assay) % at 3 μM (SYK): −8@3% |
| CC(C)(C#N)c1ccc(-c2cncc3nc(Nc4ccc(N5CCOCC5)cc4)nn23)cc1 [Compound A34, 2-Methyl-2-{4-[2-(4-morpholin-4-yl-phenylamino)-[1,2,4]triazolo[1,5-a]pyrazin-5-yl]-phenyl}-propionitrile] | 1000 to 5000 | 1000 to 5000 | – |
| CN1CCN(c2ccc(Nc3nc4cncc(Nc5cnn(C)c5)n4n3)cc2)CC1 [Compound A53, N2-[4-(4-methyl-piperazin-1-yl)-phenyl]-N5-(1-methyl-1H-pyrazol-4-yl)-[1,2,4] triazolo[1,5-a]pyrazine-2,5-diamine] | – | 1000 to 5000 | SYK (enzyme assay) % at 3 μM (SYK): −23@3% |
| NS(=O)(=O)c1cccc(Nc2nc3cncc(-c4cnc5ccccc5c4)n3n2)c1 [Compound A7, 3-(5-quinolin-3-yl-[1,2,4]triazolo[1,5-a]pyrazin-2-ylamino)-benzenesulfonamide] | 1000 to 5000 | 5000 to 10000 | – |
| Cn1cc(-c2cncc3nc(Nc4cccc(C#N)c4)nn23)cn1 [Compound A57, 3-[5-(1-methyl-1H-pyrazol-4-yl)-[1,2,4]triazolo[1,5-a]pyrazin-2-ylamino]-benzonitrile] | 5000 to 10000 | 1000 to 5000 | – |
| Cn1cc(C[C@H](N)C(=O)O)c2ccccc21 [Compound 1MT, 1 methyl-tryptophan] | – | – | tumor regression [1]: unable to elicit tumor regression |
| COc1cc(Nc2nc3cncc(-c4cnn(C)c4)n3n2)ccc1NC(=O)C1CCOCC1 [Compound A89, tetrahydro-pyran-4-carboxylic acid {2-methoxy-4-[5-(1-methyl-1H-pyrazol-4-yl)-[1,2,4]triazolo[1,5-a]pyrazin-2-ylamino]-phenyl}-amide] | 5000 to 10000 | < 1000 | – |
| COc1cc(Nc2nc3cncc(-c4ccc(O)cc4)n3n2)ccc1N1CCN(C)CC1 [Compound A87, 4-{2-[3-methoxy-4-(4-methyl-piperazin-1-yl)-phenylamino]-[1,2,4]triazolo[1,5-a]pyrazin-5-yl}-phenol] | < 1000 | < 1000 | – |
| COc1cc(Nc2nc3cncc(-c4cccc(NS(C)(=O)=O)c4)n3n2)ccc1N1CCN(C)CC1 [Compound A95, N-(3-{2-[3-methoxy-4-(4-methyl-piperazin-1-yl)-phenylamino]-[1,2,4]triazolo[1,5-a]pyrazin-5-yl}-phenyl)-methanesulfonamide] | 1000 to 5000 | < 1000 | – |
| c1cncc(Nc2nc3cncc(-c4ccc(N5CCOCC5)cc4)n3n2)c1 [Compound A16, [5-(4-morpholin-4-yl-phenyl)-[1,2,4]triazolo[1,5-a]pyrazin-2-yl]-pyridin-3-yl-amine] | – | < 1000 | SYK (enzyme assay) % at 3 μM (SYK): 1.5@3% |
| Cn1cc(-c2cncc3nc(Nc4ccc(-c5ccncc5)cc4)nn23)cn1 [Compound A60, [5-(1-methyl-1H-pyrazol-4-yl)-[1,2,4]triazolo[1,5-a]pyrazin-2-yl]-(4-pyridin-4-yl-phenyl)-amine] | < 1000 | 1000 to 5000 | – |

The next lines start with results.

| IC50 (SYK) [nM] | IC50 (GCN2) [nM] | SMILES | also measured |
| --- | --- | --- | --- |
| < 1000 | < 1000 | COc1cc(Nc2nc3cncc(-c4cccc(O)c4)n3n2)ccc1N1CCN(C)CC1 [Compound A86, 3-{2-[3-methoxy-4-(4-methyl-piperazin-1-yl)-phenylamino]-[1,2,4]triazolo[1,5-a]pyrazin-5-yl}-phenol] | – |
| 1000 to 5000 | < 1000 | CC(=O)Nc1ccc(Nc2nc3cncc(-c4cnn(C)c4)n3n2)cc1C [Compound A81, N-{2-methyl-4-[5-(1-methyl-1H-pyrazol-4-yl)-[1,2,4]triazolo[1,5-a]pyrazin-2-ylamino]-phenyl}-acetamide] | – |
| 1000 to 5000 | < 1000 | Cc1cc(Nc2nc3cncc(-c4cnn(C)c4)n3n2)ccc1OC(F)(F)F [Compound A64, [5-(1-methyl-1H-pyrazol-4-yl)-[1,2,4]triazolo[1,5-a]pyrazin-2-yl]-(3-methyl-4-trifluoromethoxy-phenyl)-amine] | – |
| 5000 to 10000 | < 1000 | Cc1cc(Nc2nc3cncc(-c4cnn(C)c4)n3n2)ccc1NC(=O)C1CCOCC1 [Compound A83, tetrahydro-pyran-4-carboxylic acid {2-methyl-4-[5-(1-methyl-1H-pyrazol-4-yl)-[1,2,4]triazolo[1,5-a]pyrazin-2-ylamino]-phenyl}-amide] | – |
| 1000 to 5000 | < 1000 | COc1cc(Nc2nc3cncc(-c4ccc(N5CCOCC5)cc4)n3n2)ccc1N1CCN(C)CC1 [Compound A91, [3-methoxy-4-(4-methyl-piperazin-1-yl)-phenyl]-[5-(4-morpholin-4-yl-phenyl)-[1,2,4]triazolo[1,5-a]pyrazin-2-yl]-amine] | – |
| 1000 to 5000 | < 1000 | CN(C)Cc1nc2cc(Nc3nc4cncc(-c5cnc6ccccc6c5)n4n3)ccc2[nH]1 [Compound A10, (2-dimethylaminomethyl-1H-benzoimidazol-5-yl)-(5-quinolin-3-yl-[1,2,4]triazolo[1,5-a]pyrazin-2-yl)-amine] | – |
| 1000 to 5000 | < 1000 | O=C1Cc2cc(Nc3nc4cncc(-c5ccc(N6CCOCC6)cc5)n4n3)ccc2N1 [Compound A15, 5-[5-(4-morpholin-4-yl-phenyl)-[1,2,4]triazolo[1,5-a]pyrazin-2-ylamino]-1,3-dihydro-indol-2-one] | – |
| 1000 to 5000 | < 1000 | COc1cc(Nc2nc3cncc(-c4ccc(NS(C)(=O)=O)cc4)n3n2)ccc1N1CCN(C)CC1 [Compound A93, N-(4-{2-[3-methoxy-4-(4-methyl-piperazin-1-yl)-phenylamino]-[1,2,4]triazolo[1,5-a]pyrazin-5-yl}-phenyl)-methanesulfonamide] | – |
| < 1000 | < 1000 | Cn1cc(-c2cncc3nc(Nc4ccc(C5(C#N)CC5)cc4)nn23)cn1 [Compound A47, 1-{4-[5-(1-methyl-1H-pyrazol-4-yl)-[1,2,4]triazolo[1,5-a]pyrazin-2-ylamino]-phenyl}-cyclopropanecarbonitrile] | – |
